Assay results reported in ChEMBL document CHEMBL5537169, “Structure-Activity Relationships and Discovery of (S)-6-Isopropyl-2-methoxy-3-(3-methoxypropoxy)-10-oxo-5,10-dihydro-6H-pyrido[1,2-h][1,7]naphthyridine-9-carboxylic Acid (AB-452), a Novel Orally Available HBV RNA Destabilizer” (J Med Chem, 2024).
pEC50: −log10 of the molar value.

Experiments:
[1] = system: Hepatitis B virus; assay: Antiviral activity against HBV infected in human HepG2.2.15 cells assessed as inhibition of HBsAg level incubated for 6 days by microplate-based chemiluminescence immunoassay; assay type: functional, organism-based; details: HepG2 2.2.15, 144 h
[2] = system: HepG2 2.2.15; assay: Cytotoxicity against human HepG2.2.15 cells by Cell-titer Glo luminescent assay; assay type: functional
[3] = Clearance in CD-1 mouse liver microsomes at 0.3 uM pre-incubated for 10 mins followed by NADPH addition incubated for 60 mins by LC-MS/MS analysis; assay type: ADME, Microsome; details: time 70 min, read-out: CLH
[4] = Clearance in CD-1 mouse at 2 mg/kg,iv measured at 0.083 to 24 hrs post administration by LC-MS/MS analysis; assay type: ADME, organism-based; details: in vivo, time 0.083-24 hrs
[5] = Half life in CD-1 mouse at 10 mg/kg,po measured at 0.083 to 24 hrs post administration by LC-MS/MS analysis; assay type: ADME, organism-based; details: in vivo, time 0.083-24 hrs
[6] = Apparent volume of distribution at steady state in CD-1 mouse at 10 mg/kg,po measured at 0.083 to 24 hrs post administration by LC-MS/MS analysis; assay type: ADME, organism-based; details: in vivo, time 0.083-24 hrs
[7] = Cmax in CD-1 mouse at 10 mg/kg,po measured at 0.083 to 24 hrs post administration by LC-MS/MS analysis; assay type: ADME, organism-based; details: in vivo, time 0.083-24 hrs
[8] = Tmax in CD-1 mouse at 10 mg/kg,po measured at 0.083 to 24 hrs post administration by LC-MS/MS analysis; assay type: ADME, organism-based; details: in vivo, time 0.083-24 hrs
[9] = AUCinfinity in CD-1 mouse at 10 mg/kg,po measured at 0.083 to 24 hrs post administration by LC-MS/MS analysis; assay type: ADME, organism-based; details: in vivo, time 0.083-24 hrs
[10] = Oral bioavailability in CD-1 mouse at 10 mg/kg measured at 0.083 to 24 hrs by LC-MS/MS analysis; assay type: ADME, organism-based; details: in vivo, time 0.083-24 hrs
[11] = Drug accumulation in CD-1 mouse liver at 10 mg/kg,po measured at 0.083 to 24 hrs post administration by LC-MS/MS analysis; assay type: ADME, organism-based; details: in vivo, time 0.083-24 hrs
[12] = Half life in Sprague-Dawley rat at 10 mg/kg,po measured at 0.083 to 24 hrs post administration by LC-MS/MS analysis; assay type: ADME, organism-based; details: in vivo, po, 10 mg/kg, time 0.083-24 hrs
[13] = Apparent volume of distribution at steady state in Sprague-Dawley rat at 10 mg/kg,po measured at 0.083 to 24 hrs post administration by LC-MS/MS analysis; assay type: ADME, organism-based; details: in vivo, time 0.083-24 hrs
[14] = Cmax in Sprague-Dawley rat at 10 mg/kg,po measured at 0.083 to 24 hrs post administration by LC-MS/MS analysis; assay type: ADME, organism-based; details: in vivo, po, 10 mg/kg, time 0.083-24 hrs
[15] = Tmax in Sprague-Dawley rat at 10 mg/kg,po measured at 0.083 to 24 hrs post administration by LC-MS/MS analysis; assay type: ADME, organism-based; details: in vivo, po, 10 mg/kg, time 0.083-24 hrs
[16] = AUCinfinity in Sprague-Dawley rat at 10 mg/kg,po measured at 0.083 to 24 hrs post administration by LC-MS/MS analysis; assay type: ADME, organism-based; details: in vivo, po, 10 mg/kg, time 0.083-24 hrs
[17] = Oral bioavailability in Sprague-Dawley rat at 10 mg/kg measured at 0.083 to 24 hrs by LC-MS/MS analysis; assay type: ADME, organism-based; details: in vivo, po, 10 mg/kg, time 0.083-24 hrs
[18] = Drug accumulation in Sprague-Dawley rat liver at 10 mg/kg,po measured at 0.083 to 24 hrs post administration by LC-MS/MS analysis; assay type: ADME, organism-based; details: in vivo, time 0.083-24 hrs
[19] = Clearance in human liver microsomes at 0.3 uM pre-incubated for 10 mins followed by NADPH addition incubated for 60 mins by LC-MS/MS analysis; assay type: ADME, Microsome; details: time 70 min, read-out: CLH

Compound | pEC50 [1] | CC50 [2] [µM] | microsomal CLint at 0.3 µM [3] [µL/min/mg] | also measured
COc1cc2c(cc1Cl)-c1cc(=O)c(C(=O)O)cn1[C@H](C(C)C)CO2 | 7.42 | > 50 | 1 | 
COCCCOc1cc2c(nc1OC)-c1cc(=O)c(C(=O)O)cn1[C@@H](C(C)C)C2 | 6.02 | > 50 |  | 
COc1cc2c(cc1Cl)-c1cc(=O)c(C(=O)O)cn1C(C(C)C)CO2 (stereo not given) | 7.12 | 46 |  | 
COCCCOc1cc2c(cc1C1CC1)-c1cc(=O)c(C(=O)O)cn1[C@H](C(C)C)CO2 | 8.22 | 42 | 1 | clearance [4]: 14 mL/min/kg; half-life [5]: 54 min; Vdss(app) [6]: 0.8 L/kg; Cmax [7]: 914 ng/mL; Tmax [8]: 4.8 h; AUC(0-inf) [9]: 8410 ng·h/mL; bioavailability [10]: 69%; Ct [11]: 575 ng/g; t1/2 [12]: 1 h; Vdss(app) [13]: 0.3 L/kg; Cmax [14]: 488 ng/mL; Tmax [15]: 3.1 h; AUC [16]: 3950 ng·h/mL; F [17]: 13%; Ct [18]: 20 ng/g
COCCCCOc1cc2c(cc1Cl)-c1cc(=O)c(C(=O)O)cn1[C@H](C(C)C)CO2 | 7.80 | 43 | 1 | 
CC(C)C1Cc2sc(Cl)cc2-c2cc(=O)c(C(=O)O)cn21 (stereo not given) | 4.68 | > 50 |  | 
COCCCOc1cc2c(cc1C)-c1cc(=O)c(C(=O)O)cn1[C@H](C(C)C)CO2 | 7.41 | 39 | 4 | microsomal CLint at 0.3 µM [19]: 8 µL/min/mg
COCCOc1cc2c(cc1Cl)-c1cc(=O)c(C(=O)O)cn1[C@H](C(C)C)CO2 | 7.28 | > 50 |  | 
COc1ccc(-c2cc(=O)c(C(=O)O)cn2CC(C)(C)C)cc1OC | 5.00 |  |  | 
C=Cc1cc2c(cc1OCCCOC)OC[C@@H](C(C)C)n1cc(C(=O)O)c(=O)cc1-2 | 8.40 | 33 |  | 
COc1nc2c(s1)CC(C(C)C)n1cc(C(=O)O)c(=O)cc1-2 (stereo not given) | 5.42 | > 50 |  | 
CC(C)[C@@H]1COc2cc(OCC(C)(C)CO)c(Cl)cc2-c2cc(=O)c(C(=O)O)cn21 | 7.92 | > 50 | 17 | 
COc1cc2c(nc1OC)-c1cc(=O)c(C(=O)O)cn1C(C(C)C)C2 (stereo not given) | 7.85 | > 50 |  | 
CC(C)[C@@H]1COc2cc(OCC3CC3)c(Cl)cc2-c2cc(=O)c(C(=O)O)cn21 | 7.49 | 37 | 1 | 
CC(C)[C@@H]1COc2cc(OCCCO)c(Cl)cc2-c2cc(=O)c(C(=O)O)cn21 | 7.72 | > 50 | 6 | microsomal CLint at 0.3 µM [19]: 4 µL/min/mg
COCc1nc2c(s1)CC(C(C)C)n1cc(C(=O)O)c(=O)cc1-2 (stereo not given) | 5.52 | > 50 |  | 
